Here are results for 7 compounds from US20230330254A1 (Regeneron Pharmaceuticals, Inc., priority 2022, published 2023).

In assay [1] the test system is HEK293/CRE-Luc cells. The assay is described as follows: Luciferase reporter assay, HEK293/CRE-Luc cells without hGLP1R (Example 11). To be noted: Experiment A; for HEK293/CRE-LUC S/N / EC50: Table 11, no hGLP1R expression. The assay is classed as cell-based, human. From the text:
(§1) To test the activity of GLP1R agonist payloads, GLP1R agonist linker-payloads (LPs), and anti-GLP1R antibody tethered drug conjugates (ATDCs) of the disclosure, a cell-based cAMP responsive luciferase reporter assay was developed. To generate the assay cell line, the firefly luciferase gene was placed under the control of a cAMP response element (CRE) located upstream of a minimal promoter and transfected into HEK293 cells and referred to herein as HEK293/CRE-Luc cells.
(§2) Three-fold serial dilutions of free payloads or LPs were prepared in 100% DMSO, transferred to fresh assay media, and added to the cells at a final constant DMSO concentration of 0.2%. The last well in the plate served as a blank control containing only the assay media and 0.2% DMSO (untreated well) and was plotted as a continuation of the 3-fold serial dilution. Four to six hours later, luciferase activity was determined after the addition of One-Glo™ reagent (Promega, Cat #E6130) to each well. Relative light units (RLUs) were measured on an Envision luminometer (PerkinElmer) and EC50 values were determined using a four-parameter logistic equation over a 12-point dose response curve (GraphPad Prism). The signal to noise (S/N) was determined by taking the ratio of the highest RLU on the dose response curve to the RLU in the untreated wells.

The subject of assay [2] is HEK293/CRE-Luc cells. Briefly: Luciferase reporter assay, HEK293/CRE-Luc cells without GLP1R (Example 17). The format is cell-based, human. As to conditions: HEK293/CRE-Luc cells without hGLP1R; for EC50: read-out: EC50. The essentials:
(§3)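 HEK293 cells carrying a CRE-driven firefly luciferase reporter were exposed to 3-fold serial dilutions of payloads or linker-payloads (12 points, 0.2% DMSO final) for 4–6 h, then luminescence was read. EC50 came from a four-parameter logistic fit; S/N is top RLU over untreated wells, and relative potency and S/N are referenced to M2361.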

The target of assay [3] is T1, human GLP1R (Homo sapiens, UniProt P43220). Briefly: Luciferase reporter assay, HEK293/CRE-Luc/hGLP1R (Example 17). The assay is classed as cell-based. Details: engineered to express full-length human GLP1R, cynomolgus GLP1R; expressed in transfected cells; host or cells: HEK293/CRE-Luc. As to conditions: HEK293/CRE-Luc/hGLP1R; for S/N: highest RLU / RLU of untreated wells; for EC50: payloads and linker-payloads, experiments A-E, M2361 repeated in each, read-out: EC50; for Relative Potency (% M2361 EC50) / Relative Signal:Noise (% M2361): relative to M2361 of the same experiment. The essentials: as §3
T1 sequence (P43220 24-463): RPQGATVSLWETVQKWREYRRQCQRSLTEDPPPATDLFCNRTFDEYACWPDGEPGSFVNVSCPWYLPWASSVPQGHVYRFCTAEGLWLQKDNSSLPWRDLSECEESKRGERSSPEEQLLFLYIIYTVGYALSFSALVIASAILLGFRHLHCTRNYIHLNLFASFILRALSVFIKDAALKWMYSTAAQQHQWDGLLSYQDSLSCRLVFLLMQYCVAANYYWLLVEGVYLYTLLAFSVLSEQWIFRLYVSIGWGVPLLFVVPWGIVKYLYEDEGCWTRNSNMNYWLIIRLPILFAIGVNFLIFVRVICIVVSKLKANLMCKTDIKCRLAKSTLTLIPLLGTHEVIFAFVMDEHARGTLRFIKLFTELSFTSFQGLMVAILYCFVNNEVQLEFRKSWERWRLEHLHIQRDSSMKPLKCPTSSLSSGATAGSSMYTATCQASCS

Assay [4] has as its target T1, human GLP1R. Briefly: Human GLP1R cAMP accumulation assay. The assay is classed as cell-based. Further details: HEK293 cells over-expressing full length human GLP-1R were utilized; expressed in transfected cells; host or cells: HEK293 (HEK293/hGLP1R). To be noted: HEK293/hGLP1R cells; Table 4; read-out: cAMP EC50. As for the experimental part: 8.1 Human GLP1R cAMP Accumulation Assay (Cyclic AMP Determination)
The functional activity of the test compounds for agonizing GLP1R were evaluated using a cell-based assay. For the assay, HEK293 cells over-expressing full length human GLP-1R were utilized and the downstream cAMP accumulation was assessed as a measure of human GLP-1R stimulation. […] Diluted compounds were transferred to OptiPlates (100 nL/well) using an Echo liquid handler. HEK293/hGLP1R cells were thawed in 37° C. water-bath, washed 2 times with HBSS and re-suspended in assay buffer (HBSS+5 mM HEPES+500 μM IBMX+0.1% BSA). […] After centrifugation, the assay plate was incubated at 23° C. for 30 min. The reaction was terminated by adding 10 μL of lysis buffer containing D2-cAMP and a cAMP-antibody from the cyclic AMP immunoassay kit (Cisbio, Cat #62AM4PEJ). […] The levels of cAMP per well were calculated using a standard curve generated by GraphPad Prism. Percent activity was calculated according to the formula (% Activity=100%*(cAMP level-LC)/(HC-LC)). EC50 values were fitted from a four-parameter logistic equation over a 10-point response curve (GraphPad Prism).

The target of assay [5] is T1, human GLP1R. Briefly: Luciferase reporter assay, HEK293/CRE-Luc/hGLP1R cells (Example 11). The format is cell-based. Further details: engineered to express full-length human GLP1R, cynomolgus GLP1R; expressed in transfected cells; host or cells: HEK293/CRE-Luc. To be noted: Table 11; Experiment A.
Description: as §1, §2
GLP1R agonist linker payloads were conjugated to anti-hGLP1R antibodies via N-terminal heavy or light chain Q tags. Several resulting anti-GLP1R antibody tethered drug conjugates (ATDCs) were tested for activity in the HEK293/CRE-Luc/hGLP1R reporter assay as described above for the free GLP1R payload and linker-payload agonists.

Structures are written as SMILES. Where a SMILES comes first, the peptide text is derived from it. [ ]: non-standard residue; d: D form. The star is where a group is joined. Bip(2'-Et,4'-O(CH2)4NH2) = CCc1cc(OCCCCN)ccc1-c1ccc(C[C@H](N)C(=O)O)cc1; Nva(5-(3,5-Me2Ph)) = Cc1cc(C)cc(CCC[C@H](N)C(=O)O)c1; Ala(1H-tetrazol-5-yl) = N[C@@H](Cc1nnn[nH]1)C(=O)O; αMePhe(2-F) = C[C@](N)(Cc1ccccc1F)C(=O)O; Desaminohistidyl = O=C(CCc1c[nH]cn1)*; X6 = CC(C)(C(=O)NO)C(=O)*

As to `CC[C@H](C)[C@H](NC(=O)[C@H](Cc1ccccc1)NC(=O)[C@H](CCC(=O)O)NC(=O)[C@H](CCCCN)NC(=O)[C@H](C)NC(=O)[C@H](C)NC(=O)[C@H](CCC(N)=O)NC(=O)CNC(=O)[C@H](CCC(=O)O)NC(=O)[C@H](CC(C)C)NC(=O)[C@H](Cc1ccc(O)cc1)NC(=O)[C@H](CO)NC(=O)[C@H](CO)NC(=O)[C@@H](NC(=O)[C@H](CC(=O)O)NC(=O)[C@H](CO)NC(=O)[C@@H](NC(=O)[C@H](Cc1ccccc1)NC(=O)[C@@H](NC(=O)CNC(=O)[C@H](CCC(=O)O)NC(=O)[C@H](C)NC(=O)[C@@H](N)Cc1c[nH]cn1)[C@@H](C)O)[C@@H](C)O)C(C)C)C(=O)N[C@@H](C)C(=O)N[C@@H](Cc1c[nH]c2ccccc12)C(=O)N[C@@H](CC(C)C)C(=O)N[C@H](C(=O)N[C@@H](CCCCN)C(=O)NCC(=O)N[C@@H](CCCNC(=N)N)C(N)=O)C(C)C` [GLP1, glucagon-like peptide 1, reference compound], the “HEK293/CRE-LUC S/N” value in the assay with HEK293/CRE-Luc cells [1] was found to be 1.3. Moreover, the “HEK293/CRE-Luc S/N” value in the assay with HEK293/CRE-Luc cells [1] (Table 12) came out at 1.4. Besides, the S/N in the assay on HEK293/CRE-Luc cells [2] (ATDCs and references (Table 27)) came out at 1.4; in the assay with HEK293/CRE-Luc cells [2] (payloads and linker-payloads), 1.3.

Regarding `CCc1cc(OCCCCN)ccc1-c1ccc(C[C@H](NC(=O)[C@H](CC(=O)O)NC(=O)[C@H](CO)NC(=O)[C@@H](NC(=O)[C@](C)(Cc2ccccc2F)NC(=O)[C@@H](NC(=O)CNC(=O)[C@H](Cc2nn[nH]n2)NC(=O)C(C)(C)C(=O)NO)[C@@H](C)O)[C@@H](C)O)C(=O)N[C@@H](CCCc2cc(C)cc(C)c2)C(N)=O)cc1` [P5] (X6-[Ala(1H-tetrazol-5-yl)]GT[αMePhe(2-F)]TSD[Bip(2'-Et,4'-O(CH2)4NH2)][Nva(5-(3,5-Me2Ph))]-NH2), on human GLP1R [3], the S/N was 50.6, the EC50 stood at 0.127 nM, the “Relative Potency (% M2361 EC50)” value is listed as 4.2% and the “Relative Signal:Noise (% M2361)” value was found to be 76.9%. In addition, in the assay on HEK293/CRE-Luc cells [2] (payloads and linker-payloads), the S/N worked out at 1.3 and the EC50 was greater than 200 nM. Further, the EC50 at human GLP1R [4] was 0.115 nM.

As for `CCc1cc(OCCCCN)ccc1-c1ccc(C[C@H](NC(=O)[C@H](CC(=O)O)NC(=O)[C@H](CO)NC(=O)[C@@H](NC(=O)[C@](C)(Cc2ccccc2F)NC(=O)[C@@H](NC(=O)CNC(=O)[C@H](Cc2nn[nH]n2)NC(=O)[C@@H](N)CO)[C@@H](C)O)[C@@H](C)O)C(=O)N[C@@H](CCCc2cc(C)cc(C)c2)C(N)=O)cc1` [P7] (H-S[Ala(1H-tetrazol-5-yl)]GT[αMePhe(2-F)]TSD[Bip(2'-Et,4'-O(CH2)4NH2)][Nva(5-(3,5-Me2Ph))]-NH2), at human GLP1R [3], the S/N was determined as 48.4, the EC50 was 1.89 nM, the “Relative Potency (% M2361 EC50)” value was 0.3% and the “Relative Signal:Noise (% M2361)” value was determined as 73.6%. In the assay on HEK293/CRE-Luc cells [2] (payloads and linker-payloads), the S/N was 1.0 and the 50% effective concentration (EC50) is greater than 200 nM. Besides, the EC50 at human GLP1R [4] was found to be 2.06 nM.

Consider `CCc1cc(OCCCCN)ccc1-c1ccc(C[C@H](NC(=O)[C@H](CC(=O)O)NC(=O)[C@H](CO)NC(=O)[C@@H](NC(=O)[C@](C)(Cc2ccccc2F)NC(=O)[C@@H](NC(=O)CNC(=O)[C@H](Cc2nn[nH]n2)NC(=O)CNC(=O)CCc2cnc[nH]2)[C@@H](C)O)[C@@H](C)O)C(=O)N[C@@H](CCCc2cc(C)cc(C)c2)C(N)=O)cc1` [P12] (Desaminohistidyl-G[Ala(1H-tetrazol-5-yl)]GT[αMePhe(2-F)]TSD[Bip(2'-Et,4'-O(CH2)4NH2)][Nva(5-(3,5-Me2Ph))]-NH2), for which, in the assay with HEK293/CRE-Luc cells [1], the EC50 was greater than 200 nM and the “HEK293/CRE-LUC S/N” value came out at 1.2. Besides, on human GLP1R [5], the “HEK293/CRE-LUC/hGLP1R Relative Potency (% P8 EC50)” value is listed as 46.5% and the “HEK293/CRE-LUC/hGLP1R S/N” value is 76.4. Also, on human GLP1R [3], the S/N turned out to be 76.4, the “Relative Potency (% M2361 EC50)” value is 46.5% and the “Relative Signal:Noise (% M2361)” value is on record as 116.2%. In the assay with HEK293/CRE-Luc cells [2] (payloads and linker-payloads), the S/N was determined as 1.2 and the EC50 is greater than 200 nM.

`CCc1cc(OCCCCN)ccc1-c1ccc(C[C@H](NC(=O)[C@H](CC(=O)O)NC(=O)[C@H](CO)NC(=O)[C@@H](NC(=O)[C@](C)(Cc2ccccc2F)NC(=O)[C@@H](NC(=O)CNC(=O)[C@H](Cc2nn[nH]n2)NC(=O)[C@@]2(C)CCN(CCc3cnc[nH]3)C2=O)[C@@H](C)O)[C@@H](C)O)C(=O)N[C@@H](CCCc2cc(C)cc(C)c2)C(N)=O)cc1` [P15-R]: in the assay on HEK293/CRE-Luc cells [1], the EC50 was greater than 200 nM and the “HEK293/CRE-LUC S/N” value is 1.1. On human GLP1R [5], the EC50 worked out at 0.0132 nM, the “HEK293/CRE-LUC/hGLP1R Relative Potency (% P8 EC50)” value is on record as 40.3% and the “HEK293/CRE-LUC/hGLP1R S/N” value is reported as 67.8. For the same compound, on human GLP1R [4], the EC50 is 0.117 nM.

Regarding `CCc1cc(OCCCCN)ccc1-c1ccc(C[C@H](NC(=O)[C@H](CC(=O)O)NC(=O)[C@H](CO)NC(=O)[C@@H](NC(=O)[C@](C)(Cc2ccccc2F)NC(=O)[C@@H](NC(=O)CNC(=O)[C@H](Cc2nn[nH]n2)NC(=O)[C@H](C)NC(=O)[C@@H](N)Cc2ccc(O)cc2)[C@@H](C)O)[C@@H](C)O)C(=O)N[C@@H](CCCc2cc(C)cc(C)c2)C(N)=O)cc1` [P18], at human GLP1R [3], the S/N is 68.2, the EC50 stood at 0.0613 nM, the “Relative Potency (% M2361 EC50)” value stood at 8.7% and the “Relative Signal:Noise (% M2361)” value is 103.6%. In addition, in the assay on HEK293/CRE-Luc cells [2] (payloads and linker-payloads), the S/N is reported as 1.4 and the 50% effective concentration (EC50) was greater than 200 nM. The 50% effective concentration (EC50) at human GLP1R [4] is 0.37 nM.

As to `CCc1cc(OCCCCN)ccc1-c1ccc(C[C@H](NC(=O)[C@H](CC(=O)O)NC(=O)[C@H](CO)NC(=O)[C@@H](NC(=O)[C@](C)(Cc2ccccc2F)NC(=O)[C@@H](NC(=O)CNC(=O)[C@H](Cc2nn[nH]n2)NC(=O)C(C)(C)C(=O)NCCc2cnc[nH]2)[C@@H](C)O)[C@@H](C)O)C(=O)Nc2ccccc2)cc1` [P22], at human GLP1R [3], the S/N came out at 48.9, the concentration giving a half-maximal response (EC50) worked out at 0.44 nM, the “Relative Potency (% M2361 EC50)” value stood at 1.2% and the “Relative Signal:Noise (% M2361)” value is listed as 74.4%. In the assay on HEK293/CRE-Luc cells [2] (payloads and linker-payloads), the S/N amounted to 1.5 and the EC50 was greater than 200 nM. Further, the half-maximal effective concentration (EC50) at human GLP1R [4] was determined as 0.603 nM.
